Values joined by “and” are separate entries in the source; they are usually repeats but may differ in a detail not shown here. Equal entries are not always repeated. Structures can show the parent of a compound that is named as a salt. Where two headings read alike, the source gives them in different places.
Columns and labels:
[1] = tested on: HeLa (cervical adenocarcinoma); assay: MTS cell viability assay, HeLa; type: cell-based; conditions: read-out: HeLa IC50
Text: (§1) Studies performed regarding cytotoxicity included the well-known MTS, Trypan Blue and MTT protocols. The MTS studies were done using the CellTiter 96®AQueous One Solution Cell Proliferation Assay (Promega Corporation, Madison, Wis. USA). Metabolically active, namely viable, cells turn MTS, a tetrazolium compound (3-(4,5-dimethylthiazol-2-yl)-5-(3-carboxymethoxyphenyl)-2-(4-sulfophenyl)-2H-tetrazolium, inner salt) into colored formazan, which is soluble in tissue culture medium. The measurement of the absorbance of the formazan is read at 490 nm. The ready to use reagent is added directly to the cells in media in 96-well plates, incubated 1-4 hours and the results are recorded by the plate reader. The IC50 is estimated by graphing the gathered data. The IC50 is the concentration of the tested material that inhibits 50% of growth or viability of the tested material compared to a control.
(§2) Three cell lines obtained from ATCC and maintained as directed by ATCC were tested: HeLa (cervical adenocarcinoma), A549 (lung carcinoma), and COS-7 (SV40 transformed monkey kidney). Studies of these cell lines are considered to be indicative of the effect of tested substances on mammalian, including human, diseases.
(§3) All compounds were dissolved in DMSO and DMSO is used as the placebo. The samples were first dissolved into 10 mM dilutions in DMSO and then diluted further to 5, 1, 0.5, 0.1, 0.05, and 0.01 mM solutions. These solutions were added to the media at a 1% concentration (1 μl to 100 μl media) to treat the cells with 100, 50, 10, 5, 1, 0.5, and 0.1 μM of the compound. […] Solutions were checked before use for precipitation, especially the 10 mM solutions. If there was precipitation, they were warmed 65° C. and added to warmed media.
(§4) Wells on a 96-well plate were seeded with 1.5-8×10^4 cells in 100 μl media and incubated overnight. The outside wells of the plate were filled with 200 μl sterile, deionized (DI) water to curb media evaporation. After 24 hours, test chemicals were prepared in media at a concentration of 1% media volume. The test sample media were added, mixing with pipette before adding 100 μl per well. Media was added to the “Media Only” wells. The well plate and its contents were incubated for 24-72 hours, depending on the study conducted. On the thy of the MTS assay, the MTS reagent was removed from the refrigerator and brought to room temperature. Using the multichannel pipette, 20 μl of the MTS reagent was added to each well and incubated for one to four hours. The plate was read at 490 nm with a reference wavelength of 690 nm after one hour in the incubator thereafter until the blank wells were at about 0.2 OD. The results were then scanned into a Microsoft® Excel® template designed to perform all necessary calculations whim data are entered. The data were checked for statistical errors; data points that are within 10% of the mean of the data points for that group were included. The average of the blanks (“Media Only”) were subtracted and the data were inserted into a chart that represents growth response, treated/untreated.

A549 (lung carcinoma) = assay: MTS cell viability assay, A549; type: cell-based; conditions: Homo sapiens
Text: as §1, §2, §3, §4

[2] = tested on: TAT-mediated transactivation of HIV transcription (HIV-1 LTR promoter); assay: SEAP assay of TAT-mediated transactivation (antiviral activity); type: cell-based, human immunodeficiency virus (HIV); conditions: for EC50: Human immunodeficiency virus 1, COS-7, 48 h, read-out: SEAP EC50
Procedure: Antiviral activity is determined using a SEAP (SEcreted Alkaline Phosphatase) assay, in which cells are co-transfected with SEAP and TAT plasmids. TAT is a transactivator, human immunodeficiency virus (HIV) gene expression and is one of the two or more necessary viral regulatory factors (TAT and REV) for HIV gene expression. TAT acts iv binding to the TAR RNA element and activating transcription from the long terminal repeat (LTR) promoter. […] Previous studies have shown that TAT mediates reduction of antibody-dependent T cell proliferation, contributing substantially to the failure of the immune response. TAT also directly stimulates Kaposi's cell growth.
Since TAT has no apparent cellular homologs, this strong positive regulator has become an attractive target for the development of anti-AIDS drugs. In contrast to currently available HIV reverse transcriptase inhibitors (AZT, DDI) or potential protease inhibitors that prevent new rounds of infection, an inhibitor which suppresses viral gene TAT regulated expression of integrated proviral DNA will arrest the virus at an early stage (Hsu et al., Science 254:1799-1802, 1991). Efforts aimed at the elucidation of factors which control gene expression at transcriptional and post-transcriptional levels in host eukaryotes have recently made possible quantitative assessment of TAT function (Sim, Ann. N.Y. Acad. Sci. 616: 64-70, 1990). To screen for inhibitors for TAT regulated transactivation (TAT-TRS), the SEAP reporter gene is put under the control of HIV-1 LTR promoter in the plasmid pBC12/HIV/SEAP. The TAT-coded activity is supplied by a second plasmid construct pBC12/CMV/t2. Transient co-transfection of COS-7 cells with these two plasmids leads to secretion of alkaline phosphatase into the culture medium which is analyzed by a simple colorimetric assay (Berger et al., Gene 66: 1-10, 1988). […]
In the SEAP assay, an inhibitor should cause reduction of SEAP reporter gene expression via transactivation of the HIV-1 LTR promoter by TAT protein (TAT-TRS). […] SEAP is detected colorimetrically by the para-nitrophenyl phosphate substrate at 405 nm. […] The cells are analyzed by the MTT assay to compare cytotoxicity to SEAP inhibition. […]
COS-7 (green monkey kidney) cells were co-transfected using Fugene 6 reagent (Roche Applied Science, Cat. No. 11815091001, Indianapolis, Ind., USA) with two plasmids: pHIVSEAP (SEAP expression vector under the control of the HIV LTR promoter) and pCTAT (HIV TAT transcription factor expression vector under the control of a CMV (cytomegalovirus) promoter). After test compound treatment for 48 hours, samples were analyzed for […] at 405 nm after addition of the p-nitrophenyl phosphate substrate. The percentage of SEAP activity inhibition was calculated in relation to the placebo control.

MCP-1 = MCP-1 protein production in TNF-α-treated primary human keratinocytes; type: cell-based
Procedure: Anti-inflammatory activity was determined based on the effect of tested compounds on primary human keratinocytes (PHKs). PHKs play an important role in inflammatory processes, synthesizing a number of cytokines, adhesion molecules and growth factors. Studies were conducted to determine whether tested compounds could inhibit keratinocytes to prevent or reduce production of interferon gamma (IFN-γ), interleukin-8 (IL-8), tumor necrosis factor alpha (TNF-α), granulocyte/macrophage colony-stimulating factor (GM-CSF), intercellular adhesion molecule-1 (ICAM-1, also known as CD54) and monocyte chemotactic protein-1 (MCP-1). PHKs are first treated with TNF-α to induce a pro-inflammatory state and release of pro-inflammatory cytokines. Specific cytokines are then assayed following manufacturer's instructions using R&D Systems. Inc.'s protein assays (Quantikine ELISA kits; Catalog Nos. DCP00 for MCP-1 kit, DCM00 for GM-CSF kit, and DIF50 for IFN-γ).
Anti-inflammatory activity of several of the compounds of the previously described working examples was determined based on the effect of tested compounds on primary human keratinocytes (PHKs) as described above and following the manufacturer's instructions for the various kits used in the studies. While these studies more typically are used mostly for anti-inflammatory investigations, they can also apply to vascular diseases, since the results in keratinocytes may be extrapolated to vascular endothelium.
Only MCP-1 data with PHKs is dose-dependent, so an IC50 for MCP-1 can be calculated, but not for the other cytokines.

COS-7 cells = assay: MTT cytotoxicity assay in COS-7 cells (run with SEAP); type: cell-based, green monkey; conditions: COS-7 test cells of the SEAP assay
Procedure: The MTT assay is a colorimetric method for determining the number of viable cells. Metabolically active cells turn the MIT reagent, (3-(4,5-dimethylthiazol-2-yl)-2,5-diphenyltetrazolium bromide, into purple-colored formazan crystals that are solubilized in dimethyl sulfoxide (DMSO). The MTT reagent is added to MTT (colorless) media. The media is added to the cells and they are incubated for 4 hours. DMSO is added to the cells and mixed. The colored solutions are then read at 540 nm and corrected at 630 nm. The IC50 is estimated by graphing the gathered data.
The cells are analyzed by the MTT assay to compare cytotoxicity to SEAP inhibition. The goal is for the drug to inhibit SEAP without being too toxic.
The MTT assay measures cellular-proliferation and is used to verify that the levels of SEAP activity are not solely due to cytotoxicity. These assays was used in screening for potential drug compound leads as antiviral agents, and particularly, anti-HIV candidates.

[3] = tested on: apoptosis of cells based on DNA fragmentation; assay: TiterTACS DNA fragmentation apoptosis assay; type: cell-based; conditions: TiterTACS apoptosis detection
Procedure: Antiproliferative activity is determined using the TiterTACS® Apoptosis Detection Kit (R&D Systems Inc., Minneapolis, Minn. USA) relating to apoptosis of cells based on DNA fragmentation, and by the ELISA VEGF ([…]) and survivin assays.
In the DNA fragmentation assay, in situ detection of apoptosis is specifically achieved with TiterTACS® 96-well Apoptosis Detection kit, Catalog No. TA600 (R&D Systems, Inc.). The TiterTACS® assay provides quantification of apoptosis in cultured cells without direct counting of labeled cells using colorimetric detection. Cells are treated with the test compounds, left untreated as experimental negative controls, or treated with TACS nuclease as positive controls. TACS nuclease allows positive controls to be generated for each experimental system: a brief treatment of cells with the TACS nuclease prior to labeling generates DNA breaks in every cell, providing an appropriate positive control specific for the system under study. The TdT enzyme that catalyzes the addition of dNTPs to DNA fragments allows for colorimetric detection of at 450 nm by using a streptavidin-HRP solution followed by the TACS-Sapphire substrate. A high absorbance at 450 nm is indicative of apoptosis in the cells. Treated cells are compared to untreated cells and to nuclease-cleaved cells to assess the extent of apoptosis.

VEGF = assay: ELISA VEGF assay (DFO-treated cells); type: cell-based, Human; conditions: VEGF released into media by DFO-treated cells, normalized to cell count; read-out: VEGF IC50
Text: ELISA (Enzyme-Linked ImmunoSorbent Assay) VEGF studies were done following manufacturer's instructions using the Endogen® Human VEGF ELISA kit, Catalog No. […] (Pierce Biotechnology, Inc., Rockford, Ill. USA). Hypoxic conditions are created for the cells by treating them with desferrioxamine (DFO), which chelates iron and causes the cells to secrete VEGF into the media. The supernatant (media) was removed and frozen for testing, and the cells were counted with the Trypan Blue assay so that the results can be normalized to cell count. The VEGF is measured with a sandwich ELISA that captures the protein in media on an antibody-coated microplate, and then uses a biotinylated antibody reagent to detect the protein. Results from a standard curve enable the user to quantify the amount of protein in each sample.

[4] = read-out: MCP-1 IC50; TNF-α-treated PHK
[5] = TNF-α-treated PHK; read-out: MCP-1 IC50

Row | SMILES | IC50 ([1]; Homo sapiens, HeLa) [µM] | IC50 (A549 (lung carcinoma); A549, read-out: A549 IC50) [µM] | EC50 [2] [µM] | IC50 (MCP-1; [4]) [µM] | IC50 (MCP-1; [5]) [µM] | further results
1 | C[C@H](Cc1ccc(OCCO)c(OCCO)c1)[C@@H](C)Cc1ccc(OCCO)c(OCCO)c1 [Compound I, 1,4-bis{3,4-bis(2-hydroxyethoxy)phenyl}-2,3-dimethyl-(2R,3S)-butane] | 20 to 30 | 65 to 70 | 60 to 80 | 25 | – | –
2 | Cc1nc(COc2ccc(C[C@@H](C)[C@@H](C)Cc3ccc(OCc4csc(C)n4)c(OCc4csc(C)n4)c3)cc2OCc2csc(C)n2)cs1 [Compound F, 1,4-bis{3,4-bis(2-methyl-thiazol-4-yl-methoxy)phenyl}-2,3-dimethyl-(2R,3S)-butane tetrakis-hydrochloride salt] | > 100 | > 100 | – | > 100 | – | SEAP EC50 ([2]; COS-7 cells co-transfected with pHIVSEAP and pCTAT, 48 hours treatment): Variable; COS-7 IC50 (COS-7 cells): Variable
3 | C[C@H](Cc1ccc(OCCCN2CCCCC2)c(OCCCN2CCCCC2)c1)[C@@H](C)Cc1ccc(OCCCN2CCCCC2)c(OCCCN2CCCCC2)c1.Cl.Cl.Cl.Cl [Compound B, 1,4-bis{3,4-bis[3-(piperidin-1-yl)propoxy]phenyl}-2,3-dimethyl-(2R,3S)-butane tetrakis-hydrochloride salt] | – | – | – | – | 2 | DNA fragmentation [3]: Negative; IC50 ([1]; MTS assay): 1 to 5 µM; IC50 (VEGF): ~2 µM and 2 µM
4 | C[C@H](Cc1ccc(OCCOCCO)c(OCCOCCO)c1)[C@@H](C)Cc1ccc(OCCOCCO)c(OCCOCCO)c1 [Compound J, 1,4-bis{3,4-bis[2-(2-hydroxyethoxy)ethoxyl]phenyl}-2,3-dimethyl-(2R,3S)-butane] | – | – | 80 to 90 | – | 70 | IC50 ([1]; Homo sapiens, HeLa, MTS assay): > 100 µM; IC50 (A549 (lung carcinoma); A549, MTS assay, read-out: A549 IC50): 80 to 90 µM; IC50 (COS-7 cells; Chlorocebus sabaeus): 80 to 90 µM

Source: US20150374709A1, “TETRA-SUBSTITUTED NDGA DERIVATIVES VIA ETHER BONDS AND CARBAMATE BONDS AND THEIR SYNTHESIS AND PHARMACEUTICAL USE” (ERIMOS PHARMACEUTICALS LLC, priority 2006, published 2015)
